This note sets out measurements from the supplement of paper PMC10307832.

Test in all cases: relative viability (nuclei count vs DMSO), 5 days (fraction); higher = more cells survive
Compound in test [1]: C[C@]12O[C@H](C[C@]1(O)CO)n1c3ccccc3c3c4c(c5c6ccccc6n2c5c31)CNC4=O [Lestaurtinib] + N=C(N)NC(=N)NCCc1ccccc1 [Phenformin] (partner 250 µM)
In a few lines: (§1)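 The day after seeding in 1536-well plates, lung cancer cell lines were treated by pin tool with a single drug, or with a fixed anchor-drug dose together with five library-drug doses (not always all listed) in √10 steps. After 5 days, a combined fix-and-stain solution (final 0.05% Triton X-100, 1% formaldehyde, 1 ug/ml Hoechst) was added. Nuclei counted on 4× images gave relative viability as treated counts over vehicle counts, reported as the median of duplicate plates.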

Compound in test [2]: C1/C(=C\C2=CC=CS2)/C(=O)/C(=C/C3=CC=CS3)/C1 + CC(=O)Nc1cccc(-n2c(=O)n(C3CC3)c(=O)c3c(Nc4ccc(I)cc4F)n(C)c(=O)c(C)c32)c1 [Trametinib] (partner 0.02 µM)
In short, it runs like this: as §1

Compound in the test “TPCA-1 + Alpelisib”: C1=CC(=CC=C1C2=CC(=C(S2)NC(=O)N)C(=O)N)F [TPCA-1] + Cc1nc(NC(=O)N2CCC[C@H]2C(N)=O)sc1-c1ccnc(C(C)(C)C(F)(F)F)c1 [Alpelisib] (partner 2 µM)
In short, it runs like this: as §1

Compound in test [3]: C1/C(=C\C2=CC=CS2)/C(=O)/C(=C/C3=CC=CS3)/C1 + CS(=O)(=O)N1CCN(Cc2cc3nc(-c4cccc5[nH]ncc45)nc(N4CCOCC4)c3s2)CC1 [Pictilisib] (partner 1 µM)
In short, it runs like this:
as §1

For the cell line HCC-44, the relative viability in test [1] (first compound 0.005 µM) is 0.194; in test [1] (first compound 0.01581 µM) it was 0.193; in test [1] (first compound 0.05 µM), 0.173; in test [1] (first compound 0.1581 µM), 0.283; in test [1] (first compound 0.5 µM), 0.185; in test [2] (first compound 0.2 µM) it was 1.1. In addition, the relative viability in test [2] (first compound 0.6325 µM) was 1.07; in test [2] (first compound 2 µM) it was 1.09; in test [2] (first compound 6.325 µM), 0.925; in test [2] (first compound 20 µM), 0.911; with TPCA-1 + Alpelisib (first compound 0.04 µM), 0.876; with TPCA-1 + Alpelisib (first compound 0.1265 µM), 0.765. The relative viability amounted to 0.838 with TPCA-1 + Alpelisib (first compound 0.4 µM); 0.703 with TPCA-1 + Alpelisib (first compound 1.265 µM); 0.66 with TPCA-1 + Alpelisib (first compound 4 µM); 0.624 in test [3] (first compound 0.2 µM); 0.605 in test [3] (first compound 0.6325 µM); 0.693 in test [3] (first compound 2 µM). Besides, the relative viability in test [3] (first compound 6.325 µM) came to 0.591; in test [3] (first compound 20 µM), 0.79.

Regarding HCC-78, the relative viability stood at 0.658 in test [1] (first compound 0.005 µM); 0.816 in test [1] (first compound 0.01581 µM); 0.556 in test [1] (first compound 0.05 µM); 0.425 in test [1] (first compound 0.1581 µM); 0.406 in test [1] (first compound 0.5 µM); 0.762 in test [2] (first compound 0.2 µM). Further, the relative viability was determined as 0.438 in test [2] (first compound 0.6325 µM); 0.744 in test [2] (first compound 2 µM); 0.805 in test [2] (first compound 6.325 µM); 0.666 in test [2] (first compound 20 µM); 0.36 with TPCA-1 + Alpelisib (first compound 0.04 µM); 0.315 in the test with TPCA-1 + Alpelisib (first compound 0.1265 µM). Moreover, the relative viability with TPCA-1 + Alpelisib (first compound 0.4 µM) was found to be 0.362; with TPCA-1 + Alpelisib (first compound 1.265 µM), 0.311; in the test with TPCA-1 + Alpelisib (first compound 4 µM), 0.262; in test [3] (first compound 0.2 µM), 0.197; in test [3] (first compound 0.6325 µM), 0.216; in test [3] (first compound 2 µM) it was 0.288. The relative viability in test [3] (first compound 6.325 µM) was determined as 0.216; in test [3] (first compound 20 µM), 0.209.

As to HCC-366, the relative viability in test [1] (first compound 0.005 µM) was 0.618; in test [1] (first compound 0.01581 µM) it was 0.642; in test [1] (first compound 0.05 µM), 0.656; in test [1] (first compound 0.1581 µM) it was 0.603; in test [1] (first compound 0.5 µM) it was 0.48; in test [2] (first compound 0.2 µM), 0.386. The relative viability worked out at 0.371 in test [2] (first compound 0.6325 µM); 0.316 in test [2] (first compound 2 µM); 0.314 in test [2] (first compound 6.325 µM); 0.329 in test [2] (first compound 20 µM); 0.481 with TPCA-1 + Alpelisib (first compound 0.04 µM); 0.362 with TPCA-1 + Alpelisib (first compound 0.1265 µM). Further, the relative viability with TPCA-1 + Alpelisib (first compound 0.4 µM) was determined as 0.352; in the test with TPCA-1 + Alpelisib (first compound 1.265 µM), 0.378; with TPCA-1 + Alpelisib (first compound 4 µM) it was 0.185; in test [3] (first compound 0.2 µM) it was 0.132; in test [3] (first compound 0.6325 µM) it was 0.137; in test [3] (first compound 2 µM) it was 0.204. For the same cell line, the relative viability in test [3] (first compound 6.325 µM) was determined as 0.191; in test [3] (first compound 20 µM) it was 0.0995.

HCC-827: the relative viability in test [1] (first compound 0.005 µM) stood at 0.359; in test [1] (first compound 0.01581 µM), 0.44; in test [1] (first compound 0.05 µM) it was 0.36; in test [1] (first compound 0.1581 µM), 0.316; in test [1] (first compound 0.5 µM), 0.265; in test [2] (first compound 0.2 µM) it was 0.548. Also, the relative viability in test [2] (first compound 0.6325 µM) was 0.558; in test [2] (first compound 2 µM), 0.524; in test [2] (first compound 6.325 µM) it was 0.5; in test [2] (first compound 20 µM) it was 0.54; with TPCA-1 + Alpelisib (first compound 0.04 µM), 1.09; in the test with TPCA-1 + Alpelisib (first compound 0.1265 µM), 0.933. The relative viability is 1.08 with TPCA-1 + Alpelisib (first compound 0.4 µM); 0.905 in the test with TPCA-1 + Alpelisib (first compound 1.265 µM); 0.491 with TPCA-1 + Alpelisib (first compound 4 µM); 1.12 in test [3] (first compound 0.2 µM); 1 in test [3] (first compound 0.6325 µM); 1.1 in test [3] (first compound 2 µM). The relative viability amounted to 0.933 in test [3] (first compound 6.325 µM) and 1.01 in test [3] (first compound 20 µM).

As for HOP-62, the relative viability in test [1] (first compound 0.005 µM) was found to be 0.637; in test [1] (first compound 0.01581 µM), 0.768; in test [1] (first compound 0.05 µM) it was 0.485; in test [1] (first compound 0.1581 µM), 0.613; in test [1] (first compound 0.5 µM), 0.274; in test [2] (first compound 0.2 µM), 0.346. In addition, the relative viability turned out to be 0.457 in test [2] (first compound 0.6325 µM); 0.377 in test [2] (first compound 2 µM); 0.381 in test [2] (first compound 6.325 µM); 0.391 in test [2] (first compound 20 µM); 1.05 with TPCA-1 + Alpelisib (first compound 0.04 µM); 0.602 with TPCA-1 + Alpelisib (first compound 0.1265 µM). Also, the relative viability with TPCA-1 + Alpelisib (first compound 0.4 µM) turned out to be 0.898; with TPCA-1 + Alpelisib (first compound 1.265 µM), 0.874; with TPCA-1 + Alpelisib (first compound 4 µM) it was 0.914; in test [3] (first compound 0.2 µM) it was 0.781; in test [3] (first compound 0.6325 µM), 0.657; in test [3] (first compound 2 µM), 0.824. In addition, the relative viability in test [3] (first compound 6.325 µM) is 0.704; in test [3] (first compound 20 µM) it was 0.889.

On to IA-LM, for which the relative viability stood at 0.912 with TPCA-1 + Alpelisib (first compound 0.04 µM); 0.619 with TPCA-1 + Alpelisib (first compound 0.1265 µM); 0.729 with TPCA-1 + Alpelisib (first compound 0.4 µM); 0.892 with TPCA-1 + Alpelisib (first compound 1.265 µM); 0.677 in the test with TPCA-1 + Alpelisib (first compound 4 µM); 0.396 in test [3] (first compound 0.2 µM). Further, the relative viability in test [3] (first compound 0.6325 µM) was determined as 0.399; in test [3] (first compound 2 µM), 0.31; in test [3] (first compound 6.325 µM) it was 0.369; in test [3] (first compound 20 µM) it was 0.359.

Consider LC-2-ad, for which the relative viability came out at 0.554 in test [1] (first compound 0.005 µM); 0.772 in test [1] (first compound 0.01581 µM); 0.561 in test [1] (first compound 0.05 µM); 0.385 in test [1] (first compound 0.1581 µM); 0.26 in test [1] (first compound 0.5 µM); 0.9 in test [2] (first compound 0.2 µM). Also, the relative viability in test [2] (first compound 0.6325 µM) was 0.94; in test [2] (first compound 2 µM), 0.893; in test [2] (first compound 6.325 µM), 0.781; in test [2] (first compound 20 µM) it was 0.897; in the test with TPCA-1 + Alpelisib (first compound 0.04 µM), 0.937; with TPCA-1 + Alpelisib (first compound 0.1265 µM), 0.775. Moreover, the relative viability with TPCA-1 + Alpelisib (first compound 0.4 µM) came to 0.99; in the test with TPCA-1 + Alpelisib (first compound 1.265 µM), 0.82; in the test with TPCA-1 + Alpelisib (first compound 4 µM), 0.326; in test [3] (first compound 0.2 µM), 0.464; in test [3] (first compound 0.6325 µM) it was 0.525; in test [3] (first compound 2 µM), 0.482. Further, the relative viability was found to be 0.51 in test [3] (first compound 6.325 µM) and 0.425 in test [3] (first compound 20 µM).

LCLC-97TM1: the relative viability in test [1] (first compound 0.005 µM) was 0.47; in test [1] (first compound 0.01581 µM) it was 0.442; in test [1] (first compound 0.05 µM) it was 0.403; in test [1] (first compound 0.1581 µM), 0.325; in test [1] (first compound 0.5 µM) it was 0.2; in test [2] (first compound 0.2 µM) it was 0.216. The relative viability worked out at 0.198 in test [2] (first compound 0.6325 µM); 0.221 in test [2] (first compound 2 µM); 0.174 in test [2] (first compound 6.325 µM); 0.218 in test [2] (first compound 20 µM); 0.249 in the test with TPCA-1 + Alpelisib (first compound 0.04 µM); 0.241 in the test with TPCA-1 + Alpelisib (first compound 0.1265 µM). For the same cell line, the relative viability came out at 0.223 in the test with TPCA-1 + Alpelisib (first compound 0.4 µM); 0.248 in the test with TPCA-1 + Alpelisib (first compound 1.265 µM); 0.187 with TPCA-1 + Alpelisib (first compound 4 µM); 0.209 in test [3] (first compound 0.2 µM); 0.28 in test [3] (first compound 0.6325 µM); 0.198 in test [3] (first compound 2 µM). The values for the relative viability in test [3] (first compound 6.325 µM) and in test [3] (first compound 20 µM) were 0.235 and 0.159, respectively.
